The source of these data is ChEMBL document CHEMBL5226285, “The long and winding road of designing phosphodiesterase inhibitors for the treatment of heart failure” (Eur J Med Chem, 2021).

Test [1] concerns the target T1, 3',5'-cyclic-AMP phosphodiesterase 4B (Homo sapiens, UniProt Q07343).
Description: Inhibition of human recombinant PDE4B1 using FAM-cAMP as substrate incubated for 20 mins
Test [2] addresses T2, cAMP and cAMP-inhibited cGMP 3',5'-cyclic phosphodiesterase 10A (Homo sapiens, UniProt Q9Y233).
Description: Inhibition of PDE10A (unknown origin)
The target of test [3] is Dual specificity calcium/calmodulin-dependent 3',5'-cyclic nucleotide phosphodiesterase 1B (Homo sapiens, UniProt Q01064).
Sequence of Dual specificity calcium/calmodulin-dependent 3',5'-cyclic nucleotide phosphodiesterase 1B (Q01064 whole entry): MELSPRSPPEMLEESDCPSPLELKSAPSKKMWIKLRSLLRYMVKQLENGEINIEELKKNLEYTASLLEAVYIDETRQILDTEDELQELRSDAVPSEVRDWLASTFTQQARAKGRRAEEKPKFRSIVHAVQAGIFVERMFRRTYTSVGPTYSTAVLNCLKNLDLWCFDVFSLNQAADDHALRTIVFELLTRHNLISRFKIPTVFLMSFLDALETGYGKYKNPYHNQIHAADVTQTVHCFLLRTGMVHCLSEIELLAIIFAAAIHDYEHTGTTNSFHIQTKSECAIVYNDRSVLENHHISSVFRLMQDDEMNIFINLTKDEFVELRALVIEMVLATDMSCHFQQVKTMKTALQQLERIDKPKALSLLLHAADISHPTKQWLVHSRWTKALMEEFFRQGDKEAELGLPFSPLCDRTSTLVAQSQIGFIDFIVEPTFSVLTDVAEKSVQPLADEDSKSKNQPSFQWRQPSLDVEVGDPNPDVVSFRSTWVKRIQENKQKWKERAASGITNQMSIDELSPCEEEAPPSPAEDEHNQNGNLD
Description: Inhibition of PDE1B (unknown origin)
In test [4] the target is T3, cGMP-specific 3',5'-cyclic phosphodiesterase (Homo sapiens, UniProt O76074).
Description: Inhibition of PDE5A1 (unknown origin) using FAM-cGMP as substrate incubated for 60 mins by IMAP-fluorescence polarization assay
The target in test [5] is T4, Acetylcholinesterase (Rattus norvegicus, UniProt P37136).
T4 sequence (P37136 whole entry): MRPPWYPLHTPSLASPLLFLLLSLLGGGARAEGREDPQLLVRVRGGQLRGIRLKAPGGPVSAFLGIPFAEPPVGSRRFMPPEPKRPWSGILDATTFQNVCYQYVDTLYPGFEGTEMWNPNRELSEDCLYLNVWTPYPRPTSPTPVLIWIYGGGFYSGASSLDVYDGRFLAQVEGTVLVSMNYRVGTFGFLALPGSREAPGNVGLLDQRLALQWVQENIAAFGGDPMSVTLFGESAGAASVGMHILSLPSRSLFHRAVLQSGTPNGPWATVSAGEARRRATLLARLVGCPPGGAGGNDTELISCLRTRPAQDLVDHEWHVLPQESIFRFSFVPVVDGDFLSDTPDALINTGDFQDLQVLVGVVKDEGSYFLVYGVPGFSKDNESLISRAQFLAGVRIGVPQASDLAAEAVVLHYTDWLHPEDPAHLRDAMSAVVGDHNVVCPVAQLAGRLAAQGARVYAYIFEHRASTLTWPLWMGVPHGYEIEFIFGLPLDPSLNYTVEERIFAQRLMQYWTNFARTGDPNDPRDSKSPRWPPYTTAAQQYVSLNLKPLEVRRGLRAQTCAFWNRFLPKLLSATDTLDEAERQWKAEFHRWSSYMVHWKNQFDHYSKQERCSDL
Description: Inhibition of rat cortex AChE using acetylthiocholine iodide as substrate incubated for 20 mins by DTNB-reagent based Ellman's method

Test [6] addresses High affinity cGMP-specific 3',5'-cyclic phosphodiesterase 9A (Homo sapiens, UniProt O76083).
Description: Inhibition of PDE9A (unknown origin)
Test [7] concerns the target T2, cAMP and cAMP-inhibited cGMP 3',5'-cyclic phosphodiesterase 10A. This is another data set of the same source.
Test [8] has as its target cGMP-dependent 3',5'-cyclic phosphodiesterase (Homo sapiens, UniProt O00408).
Test [9] deals with Phosphodiesterase 4 (Homo sapiens, UniProt P27815+Q08499+Q07343+Q08493). Type of test: protein assay.
Description: Inhibition of PDE4 (unknown origin)
Test [10] has as its target T3, cGMP-specific 3',5'-cyclic phosphodiesterase. The source holds these as a separate data set.
Description: Inhibition of human recombinant PDE5A using (Fl)-cAMP and TAMRA-cGMP as substrate incubated for 60 mins by IMAP-fluorescence polarization assay
The target of test [11] is T1, 3',5'-cyclic-AMP phosphodiesterase 4B. This is another data set of the same source.
Description: Displacement of [3H]-cAMP from full-length recombinant human PDE4B1 by fluorescence polarisation assay
Test [12] addresses 3',5'-cyclic-AMP phosphodiesterase 4D (Homo sapiens, UniProt Q08499).
Description: Displacement of [3H]-cAMP from full-length recombinant human PDE4D7 by fluorescence polarisation assay
The target of test [13] is High affinity cAMP-specific and IBMX-insensitive 3',5'-cyclic phosphodiesterase 8A (Homo sapiens, UniProt O60658). Description: biochemical. Type of test: cell-based, Sf9.
Description: Inhibition of human recombinant PDE8A expressed in baculovirus infected Sf9 insect cells

The structures appear in SMILES notation. Bounds are passed on as bounds.

T1 sequence (Q07343 whole entry): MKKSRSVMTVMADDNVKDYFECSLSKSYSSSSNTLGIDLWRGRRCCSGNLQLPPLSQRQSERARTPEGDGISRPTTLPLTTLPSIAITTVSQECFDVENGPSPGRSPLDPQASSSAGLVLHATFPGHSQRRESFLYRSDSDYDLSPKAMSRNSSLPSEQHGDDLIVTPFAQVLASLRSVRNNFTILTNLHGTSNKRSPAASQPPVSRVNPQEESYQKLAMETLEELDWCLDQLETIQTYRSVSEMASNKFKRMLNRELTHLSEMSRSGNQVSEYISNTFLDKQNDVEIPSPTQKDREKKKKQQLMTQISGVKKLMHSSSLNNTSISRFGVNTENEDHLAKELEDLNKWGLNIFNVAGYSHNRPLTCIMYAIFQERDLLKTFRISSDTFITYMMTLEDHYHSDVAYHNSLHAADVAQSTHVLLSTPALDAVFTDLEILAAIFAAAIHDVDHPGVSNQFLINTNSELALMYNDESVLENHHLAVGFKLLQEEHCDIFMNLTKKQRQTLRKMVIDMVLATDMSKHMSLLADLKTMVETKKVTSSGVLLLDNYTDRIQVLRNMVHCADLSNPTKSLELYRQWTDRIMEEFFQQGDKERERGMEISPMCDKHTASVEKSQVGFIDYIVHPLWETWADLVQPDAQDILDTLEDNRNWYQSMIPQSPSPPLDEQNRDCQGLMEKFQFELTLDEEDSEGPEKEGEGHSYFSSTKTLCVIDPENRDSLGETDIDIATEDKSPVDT
T2 sequence (Q9Y233 whole entry): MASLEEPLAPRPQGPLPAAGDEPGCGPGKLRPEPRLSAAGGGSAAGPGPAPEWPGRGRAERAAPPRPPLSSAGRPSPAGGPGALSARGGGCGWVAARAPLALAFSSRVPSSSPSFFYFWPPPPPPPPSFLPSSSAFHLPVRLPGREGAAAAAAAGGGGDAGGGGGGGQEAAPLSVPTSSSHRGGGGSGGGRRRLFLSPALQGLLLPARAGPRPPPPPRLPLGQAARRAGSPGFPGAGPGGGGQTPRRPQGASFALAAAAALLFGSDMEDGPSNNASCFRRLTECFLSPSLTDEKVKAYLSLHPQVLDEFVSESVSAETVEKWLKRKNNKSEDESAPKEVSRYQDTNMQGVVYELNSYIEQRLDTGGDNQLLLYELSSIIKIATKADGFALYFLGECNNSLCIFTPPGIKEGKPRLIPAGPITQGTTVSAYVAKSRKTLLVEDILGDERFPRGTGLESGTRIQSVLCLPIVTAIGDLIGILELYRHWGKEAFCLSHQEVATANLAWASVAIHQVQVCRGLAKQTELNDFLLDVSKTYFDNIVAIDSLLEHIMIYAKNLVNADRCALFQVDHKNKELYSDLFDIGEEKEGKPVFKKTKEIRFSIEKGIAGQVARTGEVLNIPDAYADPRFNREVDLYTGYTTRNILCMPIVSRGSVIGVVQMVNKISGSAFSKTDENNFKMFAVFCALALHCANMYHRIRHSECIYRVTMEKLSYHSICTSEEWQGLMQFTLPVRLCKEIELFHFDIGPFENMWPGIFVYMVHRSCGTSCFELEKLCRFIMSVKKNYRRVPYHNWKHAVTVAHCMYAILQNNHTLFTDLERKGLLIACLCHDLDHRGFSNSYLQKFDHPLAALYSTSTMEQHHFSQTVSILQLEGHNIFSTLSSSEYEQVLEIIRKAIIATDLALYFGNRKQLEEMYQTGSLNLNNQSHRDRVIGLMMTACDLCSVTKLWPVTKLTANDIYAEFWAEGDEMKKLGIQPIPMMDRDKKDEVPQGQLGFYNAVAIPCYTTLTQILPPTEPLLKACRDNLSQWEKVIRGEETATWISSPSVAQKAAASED
Sequence of 3',5'-cyclic-AMP phosphodiesterase 4D (Q08499 whole entry): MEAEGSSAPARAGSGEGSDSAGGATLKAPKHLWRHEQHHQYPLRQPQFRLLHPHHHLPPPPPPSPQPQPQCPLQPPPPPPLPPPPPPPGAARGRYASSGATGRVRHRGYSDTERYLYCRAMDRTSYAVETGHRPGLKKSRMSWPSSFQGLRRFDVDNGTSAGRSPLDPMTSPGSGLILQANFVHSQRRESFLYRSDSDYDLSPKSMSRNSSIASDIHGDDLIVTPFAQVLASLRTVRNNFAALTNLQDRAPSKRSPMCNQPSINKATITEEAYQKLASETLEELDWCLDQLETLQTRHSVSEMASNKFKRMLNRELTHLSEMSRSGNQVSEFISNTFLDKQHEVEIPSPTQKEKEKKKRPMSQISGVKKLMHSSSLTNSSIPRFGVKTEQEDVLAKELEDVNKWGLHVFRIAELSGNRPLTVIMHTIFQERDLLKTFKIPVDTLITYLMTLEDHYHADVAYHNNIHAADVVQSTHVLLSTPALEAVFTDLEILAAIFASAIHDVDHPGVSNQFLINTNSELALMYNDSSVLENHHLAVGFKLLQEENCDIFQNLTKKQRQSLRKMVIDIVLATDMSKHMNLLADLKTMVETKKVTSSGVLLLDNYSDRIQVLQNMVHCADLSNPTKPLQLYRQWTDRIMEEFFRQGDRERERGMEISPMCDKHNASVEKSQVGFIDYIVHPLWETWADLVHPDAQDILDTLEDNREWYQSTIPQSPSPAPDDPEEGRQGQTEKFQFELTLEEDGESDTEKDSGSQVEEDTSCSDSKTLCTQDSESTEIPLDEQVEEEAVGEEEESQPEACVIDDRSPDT
Sequence of cGMP-dependent 3',5'-cyclic phosphodiesterase (O00408 whole entry): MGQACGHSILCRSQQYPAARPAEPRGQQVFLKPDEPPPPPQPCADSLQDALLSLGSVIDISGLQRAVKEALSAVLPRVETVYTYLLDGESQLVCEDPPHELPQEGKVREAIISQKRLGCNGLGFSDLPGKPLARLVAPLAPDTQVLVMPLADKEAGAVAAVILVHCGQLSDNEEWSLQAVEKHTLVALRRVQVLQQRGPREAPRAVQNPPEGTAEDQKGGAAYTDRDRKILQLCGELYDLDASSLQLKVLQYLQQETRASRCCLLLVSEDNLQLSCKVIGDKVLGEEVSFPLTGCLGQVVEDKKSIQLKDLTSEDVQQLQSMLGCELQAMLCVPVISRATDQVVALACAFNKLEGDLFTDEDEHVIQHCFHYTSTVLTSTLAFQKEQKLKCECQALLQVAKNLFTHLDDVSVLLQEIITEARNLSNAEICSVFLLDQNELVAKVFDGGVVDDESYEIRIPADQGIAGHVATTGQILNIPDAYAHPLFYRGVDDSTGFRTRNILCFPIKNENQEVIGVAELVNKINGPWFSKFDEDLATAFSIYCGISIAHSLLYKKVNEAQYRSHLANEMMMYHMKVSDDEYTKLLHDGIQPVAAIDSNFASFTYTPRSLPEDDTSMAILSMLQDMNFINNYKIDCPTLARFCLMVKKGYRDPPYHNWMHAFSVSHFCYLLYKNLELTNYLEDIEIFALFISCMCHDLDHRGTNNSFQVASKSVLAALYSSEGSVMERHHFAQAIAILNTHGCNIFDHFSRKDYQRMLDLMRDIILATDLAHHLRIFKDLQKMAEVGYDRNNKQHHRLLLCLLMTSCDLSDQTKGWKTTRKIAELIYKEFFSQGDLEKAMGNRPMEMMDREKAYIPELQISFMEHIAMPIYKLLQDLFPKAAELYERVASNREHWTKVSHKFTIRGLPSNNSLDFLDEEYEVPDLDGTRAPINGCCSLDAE
Sequence of High affinity cGMP-specific 3',5'-cyclic phosphodiesterase 9A (O76083 whole entry): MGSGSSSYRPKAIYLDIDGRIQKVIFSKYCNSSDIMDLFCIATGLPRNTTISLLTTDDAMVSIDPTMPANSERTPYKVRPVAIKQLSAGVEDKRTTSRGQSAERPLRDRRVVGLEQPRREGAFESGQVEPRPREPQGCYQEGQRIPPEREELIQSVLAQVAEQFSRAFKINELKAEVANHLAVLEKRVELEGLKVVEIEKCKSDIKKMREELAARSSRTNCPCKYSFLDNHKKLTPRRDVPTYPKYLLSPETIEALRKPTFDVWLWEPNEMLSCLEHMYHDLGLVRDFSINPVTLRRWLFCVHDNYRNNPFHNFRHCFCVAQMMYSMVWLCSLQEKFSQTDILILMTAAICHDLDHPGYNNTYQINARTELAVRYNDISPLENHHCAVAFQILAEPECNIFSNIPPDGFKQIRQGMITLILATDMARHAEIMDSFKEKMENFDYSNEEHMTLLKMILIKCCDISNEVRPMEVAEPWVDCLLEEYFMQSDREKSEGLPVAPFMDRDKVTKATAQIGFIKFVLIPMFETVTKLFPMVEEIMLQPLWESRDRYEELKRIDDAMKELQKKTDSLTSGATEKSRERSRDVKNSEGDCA

Compound `COc1ccc([C@H]2CCN3C(=O)NC[C@H]23)cc1OC1CCCC1` showed an IC50 in [1] of 27 nM. Regarding `COc1cc2ncnc(N3CC[C@@H](Oc4cnc5ccccc5n4)C3)c2cc1OC`, the IC50 in test [2] turned out to be 6 nM. Regarding `COc1cc2ncnc(C(C)c3cccc(Cl)c3)c2cc1OC` (centres undefined), the IC50 in [3] worked out at 130 nM. Regarding `O=C1[C@H]2Cc3c([nH]c4ccccc34)[C@@H](c3ccc4c(c3)OCO4)N2C(=O)CN1CCC1CCN(Cc2ccccc2)CC1`, the IC50 in test [4] was determined as 36 nM; in test [5] it was 153 nM. For `C[C@@H](Nc1nc2c(cnn2C2CCCC2)c(=O)n1Cc1ccccc1)c1ccc(Cl)cc1`, the concentration for half-maximal inhibition (IC50) in test [6] is more than 10000 nM. Compound `CCCCOc1ccc(F)c(-c2nc(C)c3nnc4ccc(OCCF)nc4n23)c1` came in with an IC50 in [7] of more than 1000 nM. In [8], `Cc1ncn(-c2nc3c(C(=O)N[C@@H](c4ccc(OC(F)(F)F)cc4)C(C)(C)O)cnn3cc2C)n1` displayed an IC50 of 0.51 nM. For `CCCN(CCC)c1ncnc2c(OC)c(OC)c(OC)cc12`, the IC50 in test [3] was 219 nM. `CC(=O)OCCOc1nc(Oc2ccc3c(c2)COB3O)ccc1C#N`: the IC50 in [9] was found to be 0.7 nM. `O=C1[C@@H]2Cc3c([nH]c4ccccc34)[C@@H](c3ccc4c(c3)OCO4)N2C(=O)CN1CCC1CCN(Cc2ccccc2)CC1`: the figures for the IC50 in [4] and in [5] were 32 nM and 1530 nM, respectively. `CCN1CC(=O)N2[C@H](c3ccc(Cl)cc3)c3[nH]c4ccccc4c3C[C@@H]2C1=O` displayed a half-inhibitory concentration (IC50) in [10] of 3 nM. On to `COc1ccc([C@@H]2c3[nH]c4ccccc4c3C[C@H]3C(=O)N(CCC4CCN(Cc5ccccc5)CC4)CC(=O)N23)cc1`, for which the results for the IC50 in test [4] and in test [5] were 15 nM and 3230 nM, respectively.

Take `O=C1NC[C@@H]2[C@@H](c3ccc(OC(F)F)c(OCC4CC4)c3)CCN12`: the concentration for half-maximal inhibition (IC50) in [1] amounted to 18 nM.

As for `N#CC(c1ccc(OC(F)F)c(OC2CCCC2)c1)c1ccc(Cl)nn1` (centres undefined), the IC50 in [11] is 290 nM; in test [12], 310 nM. The compound `OCCN(CCO)c1nc(N2CCCCC2)c2nc(N(CCO)CCO)nc(N3CCCCC3)c2n1` [DIPYRIDAMOLE] returned an IC50 in test [13] of 4000 nM.

Usually IC50 stands for the concentration that gives 50% inhibition.
